The record followed here is US20100048462A1, “TRUNCATED PTH PEPTIDES WITH A CYCLIC CONFORMATION” (Zealand Pharma A/S, priority 2006, published 2010).

The target of experiment [1] is T1, Saos-2 PTH1R (Homo sapiens, UniProt Q03431).
T1 construct: endogenous in cells; host or cells: Saos-2
T1 sequence (Q03431 27-593): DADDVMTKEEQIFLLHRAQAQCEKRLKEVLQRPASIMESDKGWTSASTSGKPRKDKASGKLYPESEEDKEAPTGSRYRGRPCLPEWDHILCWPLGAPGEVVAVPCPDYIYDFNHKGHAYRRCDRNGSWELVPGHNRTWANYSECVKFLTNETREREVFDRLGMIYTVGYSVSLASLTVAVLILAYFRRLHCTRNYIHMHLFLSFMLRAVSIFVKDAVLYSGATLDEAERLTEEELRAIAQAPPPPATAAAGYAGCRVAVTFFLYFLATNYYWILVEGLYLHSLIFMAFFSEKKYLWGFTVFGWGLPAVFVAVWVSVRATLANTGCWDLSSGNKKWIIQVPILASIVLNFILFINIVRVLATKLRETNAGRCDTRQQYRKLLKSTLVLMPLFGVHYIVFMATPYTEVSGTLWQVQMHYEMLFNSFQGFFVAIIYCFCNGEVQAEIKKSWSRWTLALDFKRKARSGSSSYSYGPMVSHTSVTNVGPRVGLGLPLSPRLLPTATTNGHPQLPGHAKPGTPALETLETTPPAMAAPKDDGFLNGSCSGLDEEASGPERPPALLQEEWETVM
Description: cAMP-efficacy assay in Saos-2 cells. The class given is cell-based. Particulars: for EC50: cAMP, 100 μM IBMX, 37° C. 15 min, suffix of label = salt tested; for Emax ± SEM: relative effect to the control (SEQ ID NO: 32). The method, then: Peptides were dissolved in phosphate buffered saline and further diluted in Tyrode's buffer (TB, Sigma-Aldrich) containing 0.1% BSA and 100 μM isobutyl-methyl-xanthine (IBMX, Sigma-Aldrich). Saos-2 cells were seeded at 50,000 cells/well in 96-microtiter plates and grown for two days before the efficacy assays. On the day of analysis, the growth medium was carefully removed by suction. Cells were washed once with 200 μl TB/0.1% BSA. The buffer was replaced with 100 μl reaction mixture (±test peptide), and incubated at 37° C. for 15 min. The reaction was stopped by addition of 25 μl of ice-cold 0.5 M HCl. Cells were in the following incubated on ice for 60 min. 75 μl acetate-buffer, pH6.2, was added to each well of a 96-well cAMP FlashPlate (Perkin-Elmer). […] FlashPlates were incubated overnight at 4° C., emptied by suction and counted in a TopCounter (Packard).
Determinations were performed in single determinations or triplicates at all doses. […] Standards were included as single determinations, duplicates or triplicates in each experiment, preferentially on each plate.
Concentration-dependent cAMP responses were imported into GraphPad Prism vers. 4 (GraphPad Software), transformed and plotted. […] Thus, a four-parameter logistic equation was used for determination of the EC50 values. Curves were fitted with a function for sigmoidal dose response curve (variable slope) non-linear fit Y=Bottom+(Top-Bottom)/(1+10̂((LogEC50−X)*HillSlope)) where X is the logarithm of concentration and Y is the response. Y starts at Bottom and goes to Top with a sigmoid shape. pEC50, Hill-coefficient and the maximally inducible concentration of cAMP (Emax) were evaluated.
Overall statistical differences were analyzed with Statistica (Statsoft) using one-way ANOVA. Post-hoc comparisons were made by the use of Fisher's Least Significance Test. Results were considered significant, when p was lower than 0.05.

Experiment [2] addresses Saos-2 PTH1R (UniProt Q03431). Description: cell-based or functional assay.

Bridge positions count the residues as written; N and C are the ends. Square brackets hold non-standard residues; d marks the D form. Peptide text beside a SMILES is read from it. hArg = N=C(N)NCCCC[C@H](N)C(=O)O; Ac6c = NC1(C(=O)O)CCCCC1; Ac5c = NC1(C(=O)O)CCCC1; Abu = CC[C@H](N)C(=O)O; Aib = CC(C)(N)C(=O)O

The term EC50 denotes the midpoint of the concentration-response curve.

Consider `CC[C@H](C)[C@H](NC(=O)[C@H](CCC(=O)O)NC(=O)C(C)(C)NC(=O)[C@@H](NC(=O)C1(N)CCCC1)C(C)C)C(=O)N[C@@H](CCC(N)=O)C(=O)N[C@@H](CC(C)C)C(=O)N[C@@H](CCSC)C(=O)N[C@@H](Cc1c[nH]cn1)C(=O)N[C@@H](CCC(N)=O)C(=O)N[C@@H](CCCCNC(=N)N)C(=O)N[C@@H](C)C(=O)N[C@H]1CCCCNC(=O)C[C@@H](C(N)=O)NC(=O)[C@H](CC(=O)O)NC(=O)[C@H](CC(C)C)NC(=O)[C@H](Cc2c[nH]c3ccccc23)NC1=O` [SEQ ID NO: 23, H-Ac5c-Val-Aib-Glu-Ile-Gln-Leu-Met-His-Gln-Har-Ala-Lys( )-Trp-Leu-Asp-Asp( )-NH2] (H-[Ac5c]V[Aib]EIQLMHQ[hArg]AKWLDD-NH2; lactam 13-17), for which, in experiment [1], the EC50 is 33.1 nM and the “Emax ± SEM” value is listed as 1.16 ± 0.08.
For `CC[C@H](C)[C@H](NC(=O)[C@H](CCC(=O)O)NC(=O)C(C)(C)NC(=O)[C@@H](NC(=O)C1(N)CCCC1)C(C)C)C(=O)N[C@@H](CCC(N)=O)C(=O)N[C@@H](Cc1ccccc1)C(=O)N[C@@H](CC(C)C)C(=O)N[C@@H](Cc1c[nH]cn1)C(=O)N[C@@H](CCC(N)=O)C(=O)N[C@@H](CCCCNC(=N)N)C(=O)N[C@@H](C)C(=O)N[C@H]1CCCCNC(=O)C[C@@H](C(N)=O)NC(=O)[C@H](CC(N)=O)NC(=O)[C@H](CC(C)C)NC(=O)[C@H](Cc2c[nH]c3ccccc23)NC1=O` [SEQ ID NO: 27, H-Ac5c-Val-Aib-Glu-Ile-Gln-Phe-Leu-His-Gln-Har-Ala-Lys( )-Trp-Leu-Asn-Asp( )-NH2] (H-[Ac5c]V[Aib]EIQFLHQ[hArg]AKWLND-NH2; lactam 13-17), in that order: 12.3 nM and 0.92 ± 0.06.
For the compound H-[Ac5c]V[Aib]EIQLMHQ[hArg]AKWLND-OH, in experiment [2], the Emax, cAMP efficacy assay in Saos-2 cells (38T, trifluoroacetate salt) (relative to control (SEQ ID NO: 32)) was found to be 1.2 and the pEC50, cAMP efficacy assay in Saos-2 cells (38T, trifluoroacetate salt) was 7 -log(M).
For “(H-Ac5c-Val-Aib-Glu-Ile-Gln-Leu-Met-His-Gln-Har-Ala-Lys( )-Trp-Leu-Asn-Asp( )-NH2)2 (peptide)”, in experiment [2], the Emax, cAMP efficacy assay in Saos-2 cells (39T, trifluoroacetate salt) (relative to control (SEQ ID NO: 32)) is 0.95 and the pEC50, cAMP efficacy assay in Saos-2 cells (39T, trifluoroacetate salt) is 8.3 -log(M).
Consider `CC[C@H](C)[C@H](NC(=O)[C@H](CCC(=O)O)NC(=O)C(C)(C)NC(=O)[C@@H](NC(=O)C1(N)CCCCC1)C(C)C)C(=O)N[C@@H](CCC(N)=O)C(=O)N[C@@H](CC(C)C)C(=O)N[C@@H](CC(C)C)C(=O)N[C@@H](Cc1c[nH]cn1)C(=O)N[C@@H](CCC(N)=O)C(=O)N[C@@H](CCCCNC(=N)N)C(=O)N[C@@H](C)C(=O)N[C@H]1CCCCNC(=O)C[C@@H](C(N)=O)NC(=O)[C@H](CC(N)=O)NC(=O)[C@H](CC(C)C)NC(=O)[C@H](Cc2c[nH]c3ccccc23)NC1=O` [SEQ ID NO: 10, H-Ac6c-Val-Aib-Glu-Ile-Gln-Leu-Leu-His-Gln-Har-Ala-Lys( )-Trp-Leu-Asn-Asp( )-NH2] (H-[Ac6c]V[Aib]EIQLLHQ[hArg]AKWLND-NH2; lactam 13-17), for which, in experiment [1], the EC50 was 12.6 nM and the “Emax ± SEM” value came out at 1.08 ± 0.06.
Turning to “H-Ac5c-Val-Aib-Glu-Ile-Gln-Leu-Met-His-Gln-Har-Ala-Asp( )-Trp-Leu-Asn-Lys( )-NH2 (peptide)”, in experiment [2], the Emax, cAMP efficacy assay in Saos-2 cells (6T, trifluoroacetate salt) (relative to control (SEQ ID NO: 32)) amounted to 1.5 and the pEC50, cAMP efficacy assay in Saos-2 cells (6T, trifluoroacetate salt) was 6.9 -log(M).
For `CC[C@H](C)[C@H](NC(=O)[C@H](CCC(=O)O)NC(=O)C(C)(C)NC(=O)[C@@H](NC(=O)C1(N)CCCC1)C(C)C)C(=O)N[C@@H](CCC(=O)O)C(=O)N[C@@H](CC(C)C)C(=O)N[C@@H](CC(C)C)C(=O)N[C@@H](Cc1c[nH]cn1)C(=O)N[C@@H](CCC(N)=O)C(=O)N[C@@H](CCCCNC(=N)N)C(=O)N[C@@H](C)C(=O)N[C@H]1CCCCNC(=O)C[C@@H](C(N)=O)NC(=O)[C@H](CC(N)=O)NC(=O)[C@H](CC(C)C)NC(=O)[C@H](Cc2c[nH]c3ccccc23)NC1=O` [SEQ ID NO: 29, H-Ac5c-Val-Aib-Glu-Ile-Glu-Leu-Leu-His-Gln-Har-Ala-Lys( )-Trp-Leu-Asn-Asp( )-NH2] (H-[Ac5c]V[Aib]EIELLHQ[hArg]AKWLND-NH2; lactam 13-17), in experiment [1], the EC50 was 112 nM and the “Emax ± SEM” value is 1.27 ± 0.20.
The corresponding values for `CC[C@H](NC(=O)[C@@H](NC(=O)C1(N)CCCC1)C(C)C)C(=O)N[C@@H](CCC(=O)O)C(=O)N[C@H](C(=O)N[C@@H](CCC(N)=O)C(=O)N[C@@H](CC(C)C)C(=O)N[C@@H](CC(C)C)C(=O)N[C@@H](Cc1c[nH]cn1)C(=O)N[C@@H](CCC(N)=O)C(=O)N[C@@H](CCCCNC(=N)N)C(=O)N[C@@H](C)C(=O)N[C@H]1CCCCNC(=O)C[C@@H](C(N)=O)NC(=O)[C@H](CC(N)=O)NC(=O)[C@H](CC(C)C)NC(=O)[C@H](Cc2c[nH]c3ccccc23)NC1=O)[C@@H](C)CC` [SEQ ID NO: 15, H-Ac5c-Val-Abu-Glu-Ile-Gln-Leu-Leu-His-Gln-Har-Ala-Lys( )-Trp-Leu-Asn-Asp( )-NH2] (H-[Ac5c]V[Abu]EIQLLHQ[hArg]AKWLND-NH2; lactam 13-17) are 60.3 nM and 1.04 ± 0.03.
